In brackets after ≈: the same amount, converted by molar mass. Where two headings read alike, the source gives them in different places. A value given as a limit tells only on which side of the number the result lay.

These results are taken from patent US20230303599A1, “PRODRUGS OF PHOSPHONAMIDE NUCLEOTIDE ANALOGUES AND THEIR PHARMACEUTICAL USE” (priority 2020, published 2023).

The test system of one data set is PBMCs. As to the kind of experiment: TFV-DP formation in peripheral blood mononuclear cells (PBMCs). Type of data set: in vitro ADME, human. The note with it: 1 μM compound, 2 hrs at 37° C., 50% serum, activated PBMCs; average of at least two independent experiments. Here is the method: Example 109: TFV-DP Formation in Peripheral Blood Mononuclear Cells (PBMCs)
Compounds were tested in a 96-well assay format for the level of TFV-DP loading in PBMCs in the presence of human serum. PBMCs were activated with 100 units/mL recombinant human […] and […] phytohaemagglutinin (PHA) for 36 hrs. After activation, PBMCs (2 million) were incubated with compounds (1 μM) and cell culture media with 50% serum in a 96 well plate for 2 hrs at 37° C. Cells were transferred to a 96 well deep block plate and spun down. Liquid was removed, and cells were washed 2× with 1 mL of 0.9% saline with spin downs between washes. After a final wash and liquid removal, 500 μL of MeOH+200 nM C1-ATP+200 nM [adenine-^13Cs]-tenofovir diphosphate (tetra ammonium salt) was added and thoroughly mixed with the cells. The plate was then spun down and 450 μL of sample was transferred to a new 96 well plate. Supernatants were then evaporated, reconstituted in 80 μl of 1 mM ammonium phosphate and thoroughly vortexed. Blank samples were pooled for serial dilution to construct calibration standards for TFV, TFV-DP and TFV-TP in pmol/million cells. Samples were then transferred to a short-well 96 well plate, centrifuged and injected on an LC-MS/MS for quantification. Values were reported in μM units using an intracellular volume of […].

Data set [1] can be described thus: Kinetic solubility analysis. Type of data set: physicochemical. Conditions: 1× PBS, 24.2 °C, aqueous buffer, kinetic from dmso stock; pH 7.4 PBS, 1% DMSO, 24-hour incubation at ambient temperature. Put shortly:
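Compounds from 10 mM DMSO stocks were incubated in 0.1 N HCl or 1× PBS pH 7.4 (1.0% DMSO, 100 μM maximum theoretical) for 24 h at 24.2-27.5 °C, then vacuum filtered. Filtrates were quantified in μM by chemiluminescent nitrogen detection against a calibration curve, corrected for background nitrogen; values for adjacent ring-nitrogen compounds were raised ~25%.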

A further data set concerns HIV-1 (IIIB). Put plainly: Antiviral (HIV) assay in MT-4 cells. Type of data set: cell-based. Here is the method:
Example 104: Antiviral (HIV) Assay in MT-4 Cells
Compounds were tested in a high-throughput 384-well assay format for their ability to inhibit the replication of HIV-1 (IIIB) in MT-4 cells. Compounds were serially diluted (1:3) in DMSO on 384-well polypropylene plates and further diluted 200-fold into complete RPMI media (10% FBS, 1% P/S) using the Biotek Micro Flow and Labcyte ECHO acoustic dispenser. Each plate contained up to 8 test compounds, with negative (no drug) and positive (5 μM AZT) controls. MT-4 cells were pre-treated with 10 μL of either RPMI (mock-infected) or a fresh 1:250 dilution of HIV-1 IIIB concentrated virus stock. Infected and uninfected MT-4 cells were further diluted in complete RPMI media and added to each plate using a Micro Flow dispenser. After 5 days incubation in a humidified and temperature-controlled incubator (37° C.), Cell Titer Glo (Promega) was added to the assay plates and chemiluminescence read using an Envision plate-reader. EC50 values were defined as the compound concentration that causes a 50% decrease in luminescence signal and were calculated using a sigmoidal dose-response model to generate curve fits and are shown in Table 1.

Data set [2] is described as follows: Cytotoxicity assay in MT-4 cells. Type of data set: cell-based. The note with it: human, uninfected MT-4 cells, average of at least two independent experiments, read-out: MT4 CC50. A digest of the protocol:
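Uninfected MT-4 cells were incubated 5 days at 37 °C with 1:3 serially diluted compound in RPMI (10% FBS), with 10 μM puromycin as baseline cytotoxicity. Viability was read by CellTiter-Glo luminescence. Values are concentrations giving 50% luminescence decrease, from sigmoidal dose-response fits.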

The test system of the next data set is HBV. As to the kind of experiment: Antiviral (HBV) assay in primary human hepatocytes (PHHs). Type of data set: cell-based. Conditions: Hepatitis B virus, Hepatocyte, 120 h; HBV (GTD) infected PHH, 5 days, HBV DNA in supernatant; average of at least two independent experiments. Here is the method: Example 106: Antiviral (HBV) Assay in Primary Human Hepatocytes (PHHs)
Cryopreserved PHH were thawed, recovered by centrifugation at 100 g in cryopreserved hepatocyte recovery medium (Thermo Fisher Scientific; CM7500), and plated on collagen matrix (Life Technologies; Catalog Number: R-011-K) coated T225 flasks (Corning CellBIND, Catalog Number: 3293) at a density of 25E6 live cells in 60 mls media. Cells were plated in William's E medium (Thermo Fisher Scientific; A1217601) supplemented with 3.6% hepatocyte thawing and plating supplement (Thermo Fisher Scientific, A15563), 5% fetal bovine serum (Thermo Fisher Scientific; 16000-036), 1 μM dexamethasone (Thermo Fisher Scientific, A15563), and 0.2% Torpedo antibiotic mix (Bioreclamation; Z990008). The plating medium was removed after 14 hours and the cells were subsequently cultured in maintenance medium: William's E medium supplemented with 4% hepatocyte maintenance supplement (Thermo Fisher Scientific; AI15564), 2% fetal bovine serum, 0.1μ M dexamethasone, 1.5% DMSO (Sigma-Aldrich, St. Louis, MO; D8418), and 0.2% Torpedo antibiotic mix. Approximately 24 hours after plating, PHH were infected with HepAD38-derived GTD virus at 500 viral genome equivalents per cell in PHH maintenance medium supplemented with 4% PEG 8000 (Promega, Madison, WI; V3011). Infections were allowed to proceed for 24 hours before removing the remaining extracellular virions by washing with maintenance medium three times. After allowing viral infection to take place for 3 days, the infected cells were harvested from the flasks by trypsinization (0.25X in PBS without Ca/Mg, 25 minutes) following a 4 minute 0.5X Versene (Life Technologies Catalog Number: 15040-066) treatment and two PBS washes. Trypsinized cells were inactivated in 10% FBS containing maintenance medium, centrifuged 6 minutes at 50 g, resuspended in hepatocyte maintenance medium, filtered through a 40 uM cell strainer, and adjusted to a density of 0.25E6 cells/ml. Infected cells were seeded on 384 well collagen coated plates (Greiner, Austria) at a density of 20,000 cells/well containing serially diluted compounds of the present disclosure or DMSO (0.5%) in a final volume of 80 μl. The assay plates were incubated for a period of 5 days and the antiviral activity of the test compounds were assayed by detecting the presence of HBV DNA in the culture supernatant using the QuantiGene™ 2.0 nucleic acid quantification kit (Affymetrix, Santa Clara, CA).

A short description of data set [3]: Cytotoxicity assay in primary human hepatocytes (PHHs). Type of data set: cell-based. The note with it: HBV-infected primary human hepatocytes, HBV-infected PHH, Cell Titer Glo, average of at least two independent experiments. A digest of the protocol: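 HBV-infected primary human hepatocytes seeded at 20K cells/well on compound-prespotted collagen plates and incubated 5 days. After removing supernatant for HBV DNA analysis, viability measured in remaining cells by CellTiter-Glo luminescence.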
A general note: Cellular ATP, detected with luciferase, serves as a proxy for viable cell number.

Where [4] appears, read: Human immunodeficiency virus 1, IIIB, MT4, 120 h, read-out: MT4 HIV EC50 (nM).

Usually kinetic solubility stands for solubility judged after dilution from a stock solution rather than from solid. Consider `C[C@H](Cn1cnc2c(N)ncnc21)OCP(=O)(NC(C)(C)C(=O)O[C@H]1CC[C@H](C(C)(C)C)CC1)NC(C)(C)C(=O)O[C@H]1CC[C@H](C(C)(C)C)CC1` [Example 12, Bis(trans-4-(tert-butyl)cyclohexyl) 2,2′-((((((R)-1-(6-amino-9H-purin-9-yl)propan-2-yl)oxy)methyl)phosphoryl)bis(azanediyl))bis(2-methylpropanoate)], for which the “Average PBMC TFV-DP (μM)” value in the data set with PBMCs was “BLQ”. Further, the solubility (kinetic) at 24 h in data set [1] was below 1 µg/mL.
For orientation: EC50 means the concentration that produces a half-maximal response. As a reminder, the CC50 is the concentration giving 50% cytotoxicity. For `C[C@H](Cn1cnc2c(N)ncnc21)OCP(=O)(NC(C)(C)C(=O)OCC1CCC(C)(C)CC1)NC(C)(C)C(=O)OCC1CCC(C)(C)CC1` [Example 13, Bis((4,4-dimethylcyclohexyl)methyl) 2,2′-(((((1-(6-amino-9H-purin-9-yl)propan-2-yl)oxy)methyl)phosphoryl)bis(azanediyl))(R)-bis(2-methylpropanoate)], in the data set on HIV-1 (IIIB) (Human immunodeficiency virus 1, MT4, 120 h, HIV-1 IIIB in MT-4 cells, 5 days, Cell Titer Glo, average of at least two independent experiments, read-out: MT4 HIV EC50), the EC50 came to 16 nM. In addition, in data set [2], the CC50 at 5 days was determined as 5470 nM. In data set [1], the solubility (kinetic) at 24 h was below 1 µg/mL.
The compound `CCCCCCOC(=O)C(C)(C)NP(=O)(CO[C@H](C)Cn1cnc2/c(=N\Cc3oc(=O)oc3C)n(Cc3oc(=O)oc3C)cnc21)NC(C)(C)C(=O)OCCCCCC` [Example 84, Dihexyl 2,2′-(((((1-(1-((5-methyl-2-oxo-1,3-dioxol-4-yl)methyl)-6-(((5-methyl-2-oxo-1,3-dioxol-4-yl)methyl)imino)-1,6-dihydro-9H-purin-9-yl)propan-2-yl)oxy)methyl)phosphoryl)bis(azanediyl))(R,E)-bis(2-methylpropanoate)] yielded an EC50 with HBV of 3.37 nM. For the same compound, the CC50 at 5 days in data set [3] is above 100 nM; in data set [2], 10600 nM. The compound further showed a solubility (kinetic) at 24 h in data set [1] of 8 µg/mL (≈ 9.41 µM).
`C[C@H](Cn1cnc2c(N)ncnc21)OCP(=O)(NC(C)(C)C(=O)OC1CC2(CCCCC2)C1)NC(C)(C)C(=O)OC1CC2(CCCCC2)C1` (stereo partly drawn) [Example 86, Di(spiro[3.5]nonan-2-yl) 2,2′-(((((1-(6-amino-9H-purin-9-yl)propan-2-yl)oxy)methyl)phosphoryl)bis(azanediyl))(R)-bis(2-methylpropanoate)] displayed an EC50 with HBV of 3.16 nM. The cytotoxic concentration (CC50) at 5 days is above 100 nM in data set [3] and 3730 nM in data set [2]. The compound also displayed a kinetic solubility at 24 h in data set [1] of 2 µg/mL (≈ 2.85 µM).
Taken in the same sequence, the figures for `C[C@H](Cn1cnc2c(N)ncnc21)OCP(=O)(NC(C)(C)C(=O)OCC1CCC(F)(F)CC1)NC(C)(C)C(=O)OCC1CCC(F)(F)CC1` [Example 88, Bis((4,4-difluorocyclohexyl)methyl) 2,2′-(((((1-(6-amino-9H-purin-9-yl)propan-2-yl)oxy)methyl)phosphoryl)bis(azanediyl))(R)-bis(2-methylpropanoate)] were 2.5 nM, above 100 nM, 7290 nM and 69 µg/mL (≈ 95.6 µM).
Taken in the same sequence, the figures for `C[C@H](Cn1cnc2c(N)ncnc21)OCP(=O)(NC(C)(C)C(=O)OC1CC(C2CCC2)C1)NC(C)(C)C(=O)OC1CC(C2CCC2)C1` (stereo partly drawn) [Example 90, Di([1,1′-bi(cyclobutan)]-3-yl) 2,2′-(((((1-(6-amino-9H-purin-9-yl)propan-2-yl)oxy)methyl)phosphoryl)bis(azanediyl))(R)-bis(2-methylpropanoate)] were 2.95 nM, above 100 nM, 5510 nM and 7 µg/mL (≈ 10.4 µM).
The matching figures for `CCC[C@H]1CC[C@H](COC(=O)C(C)(C)NP(=O)(CO[C@H](C)Cn2cnc3c(N)ncnc32)NC(C)(C)C(=O)OC[C@H]2CC[C@H](CCC)CC2)CC1` [Example 92]: 4.56 nM, above 100 nM, 7990 nM and below 1 µg/mL.
With `CCCCCCOC(=O)C(C)(C)NP(=O)(CO[C@H](C)Cn1cnc2c(NC(=O)CCCSC(C)=O)ncnc21)NC(C)(C)C(=O)OCCCCCC` [Example 97, Dihexyl 2,2′-(((((1-(6-(4-(acetylthio)butanamido)-9H-purin-9-yl)propan-2-yl)oxy)methyl)phosphoryl)bis(azanediyl))(R)-bis(2-methylpropanoate)], in the data set with HIV-1 (IIIB) (setting [4]), the EC50 worked out at 13 nM. Besides, the CC50 at 5 days in data set [2] was determined as 10700 nM. This compound also displayed a solubility (kinetic) at 24 h in data set [1] of 13 µg/mL (≈ 16.9 µM).
Regarding `CCCCCCOC(=O)C(C)(C)NP(=O)(CO[C@H](C)Cn1cnc2c(NC(=O)CC(C)(C)c3c(C)cc(C)cc3OC(C)=O)ncnc21)NC(C)(C)C(=O)OCCCCCC` [Example 100, Dihexyl 2,2′-(((((1-(6-(3-(2-acetoxy-4,6-dimethylphenyl)-3-methylbutanamido)-9H-purin-9-yl)propan-2-yl)oxy)methyl)phosphoryl)bis(azanediyl))(R)-bis(2-methylpropanoate)], the EC50 in the data set on HIV-1 (IIIB) (setting [4]) was found to be 22 nM.
For the compound `C[C@H](Cn1cnc2c(N)ncnc21)OCP(=O)(NC(C)(C)C(=O)OCCc1ccccc1)NC(C)(C)C(=O)OCCc1ccccc1` [Example 103, Diphenethyl 2,2′-(((((1-(6-amino-9H-purin-9-yl)propan-2-yl)oxy)methyl)phosphoryl)bis(azanediyl))(R)-bis(2-methylpropanoate)], in the data set with HIV-1 (IIIB) (setting [4]), the EC50 was above 500 nM. In data set [2], the CC50 at 5 days was above 42500 nM.
